“Also recorded” adds a separate entry of the source. Peptide text beside a SMILES is read from it. * marks the point of attachment. Stearoyl = CCCCCCCCCCCCCCCCCC(=O)*

A word on the IC50: it is the concentration that gives 50% inhibition. A higher IC50 goes with lower potency.

Series [1] has as its system influenza virus A/PR/8/34 (H1N1). Briefly: Plaque assay on MDCK cells, inhibition of influenza virus infection (H1N1). It is filed as cell-based, influenza type A virus. To be noted: for IC50: H1N1, plaque assay on MDCK cells; for anti-influenza virus activity in vitro: MDCK plaque assay. On the procedure: (§1) Inhibition of influenza virus infection was determined by a plaque assay on MDCK cells. The MDCK cells in 6-well plates were incubated with 0.2 mL of influenza virus A/PR/8/34 solutions (100 to 200 pfu; pfu denotes plaque-forming units; subtype H1N1) or influenza virus A/Victria/1/75 solutions (100-200 pfu; subtype H3N2) each containing C18-D1, S2 (H-ARLPRTMVHPKPAQP-NH2), C18-S2 (stearoyl-ARLPRTMVHPKPAQP-NH2), or D1 (H-GLAMAPSVGHVRQHG-NH2). After incubation at 37° C. under 5% CO2 for 30 minutes, the supernatant was removed, and the cells were washed with PBS. 2 mL (per well) of 2×MEM+BSA containing 0.6% agarose, 0.01% of O-diethylaminoethyl cellulose dextran, 0.1% NaHCO3, and 0.01 μg/mL of acetyl trypsin was added, and the cells were incubated for two days. Viable cells were stained with a crystal violet solution (1 mg/mL in 20% ethanol), and the number of plaques was counted. The maximum infection activity (100%) was defined as the number of plaques in the case of the absence of C18-D1. The IC50 value (50% inhibitory concentration) of C18-D1 was obtained from the plot between log [f/(1−f)] and log [C18-D1], wherein f is the percent infection activity. The IC50 values of S2, C18-S2, and D1 were calculated in a similar manner.

In series [2] the test system is influenza virus A/Victria/1/75 (H3N2). In words: Plaque assay on MDCK cells, inhibition of influenza virus infection (H3N2). It is filed as cell-based, influenza type A virus. On the procedure:
as §1

Series [3] can be described thus: Critical micelle concentration by NPN fluorescence in PBS. It counts as physicochemical. The note with it: PBS (pH 7.5), 1 μM NPN. On the procedure: The critical micelle concentration (CMC) of the purified C18-D1 was determined in the following manner. PBS (pH 7.5) containing 1 μM of N-phenyl-1-naphthylamine (hereinafter abbreviated as “NPN”) was prepared. A C18-D1 peptide stock solution (1 mM) was serially diluted to final concentrations of […], 10, and 30 μM. These solutions were excited by a wavelength of 350 nm, and the fluorescence intensity (FI) at 450 nm was measured. The difference in FI between each diluted peptide solution and PBS alone was plotted as the ordinate, and the peptide solutions were plotted as the abscissa. The concentration at the intersection of the high concentration curve and the low concentration curve was determined. The critical micelle concentration (CMC) of the intersection was 1.3 μM.

The next series has as its system influenza virus (H1N1). The arrangement: species or system mice. To be noted: mouse.
Series [4] concerns the target hemagglutinin of influenza type A virus A/PR/8/34 (H1N1) (influenza A virus A/PR/8/34 (H1N1)) (UniProt P03452). Briefly: cell-based or functional assay.
The target of series [5] is hemagglutinin of influenza type A virus A/Victria/1/75 (H3N2) (influenza A virus A/Victria/1/75 (H3N2)). Briefly: cell-based or functional assay.

For the molecule `CCCCCCCCCCCCCCCCCC(=O)NCC(=O)N[C@@H](CC(C)C)C(=O)N[C@@H](C)C(=O)N[C@@H](CCSC)C(=O)N[C@@H](C)C(=O)N1CCC[C@H]1C(=O)N[C@@H](CO)C(=O)N[C@H](C(=O)NCC(=O)N[C@@H](Cc1c[nH]cn1)C(=O)N[C@H](C(=O)N[C@@H](CCCNC(=N)N)C(=O)N[C@@H](CCC(N)=O)C(=O)N[C@@H](Cc1c[nH]cn1)C(=O)NCC(N)=O)C(C)C)C(C)C` [C18-D1, (stearoyl)-Gly Leu Ala Met Ala Pro Ser Val Gly His Val Arg Gln His Gly-NH2] (Stearoyl-GLAMAPSVGHVRQHG-NH2), the IC50 in series [1] worked out at 11 µM; in series [2] (H3N2, plaque assay on MDCK cells), 7.5 µM. The “anti-influenza virus activity in vitro” value in series [1] is “inhibited”; in series [1] (listed as 018-D1), “excellent anti-influenza virus activity”. The “infection of MDCK cells with H3N2” value in series [2] (in vitro, MDCK plaque assay) is “inhibited”. Moreover, the “critical micelle concentration (CMC)” value in series [3] is 1.3 µM. Further, the mice survived in the series with influenza virus (H1N1) (in vivo) is listed as not below 80%.

For `CCCCCCCCCCCCCCCCCC(=O)N[C@@H](C)C(=O)N[C@@H](CCCNC(=N)N)C(=O)N[C@@H](CC(C)C)C(=O)N1CCC[C@H]1C(=O)N[C@@H](CCCNC(=N)N)C(=O)N[C@H](C(=O)N[C@@H](CCSC)C(=O)N[C@H](C(=O)N[C@@H](Cc1c[nH]cn1)C(=O)N1CCC[C@H]1C(=O)N[C@@H](CCCCN)C(=O)N1CCC[C@H]1C(=O)N[C@@H](C)C(=O)N[C@@H](CCC(N)=O)C(=O)N1CCC[C@H]1C(N)=O)C(C)C)[C@@H](C)O` [C18-S2, stearoyl ARLPRTMVHPKPAQP-NH2] (Stearoyl-ARLPRTMVHPKPAQP-NH2), in series [1], the IC50 amounted to 10 µM and the “anti-influenza virus activity in vitro” value is on record as “potent anti-influenza virus effect in vitro; also recorded: excellent anti-influenza virus activity”. Further, the “in vivo effect on influenza virus infection” value in the series on influenza virus (H1N1) is reported as “ineffective in vivo; also recorded: caused early mortality”.

As to “H-ARLPRTMVHPKPAQP-NH2 [S2-NH2, H-ARLPRTMVHPKPAQP-NH2]”, the IC50 in series [1] was more than 100 µM.

“H-GLAMAPSVGHVRQHG-NH2 [D1-NH2, H-GLAMAPSVGHVRQHG-NH2]” returned an IC50 in series [1] of more than 100 µM.

B1: C18-D1 (stearoyl-Gly Leu Ala Met Ala Pro Ser Val Gly His Val Arg Gln His Gly-NH2), as self-assembly (peptide)
peptide: Stearoyl-GLAMAPSVGHVRQHG-NH2
As for B1, the IC50 (plaque assay on MDCK cells, inhibition of influenza virus infection) was 11 µM in series [4] and 7.5 µM in series [5].

Values taken from patent US20110152178A1 (priority 2008, published 2011).
